Laboratory results as given in patent publication US20070292888A1, “Methods for Measuring Enzyme Activities in Cells, Blood, Tumors and Tissues” (GEN-PATH PHARMACEUTICALS, INC., priority 2004, published 2007).

Columns and labels:
[1] = molecular target: T1, glucose-6-phosphate dehydrogenase (G6PDH) (Mus musculus, UniProt Q00612); test: Glucose-6-phosphate dehydrogenase activity in tissues of treated mice (fluorescence NADPH assay); format: in vivo; conditions: 11 days i.p. twice per day, various organs
T1 construct: from tissue; host or cells: mouse tumor, blood, brain, heart, kidney, liver, lung, spleen (crude lysates)
T1 sequence (Q00612 whole entry): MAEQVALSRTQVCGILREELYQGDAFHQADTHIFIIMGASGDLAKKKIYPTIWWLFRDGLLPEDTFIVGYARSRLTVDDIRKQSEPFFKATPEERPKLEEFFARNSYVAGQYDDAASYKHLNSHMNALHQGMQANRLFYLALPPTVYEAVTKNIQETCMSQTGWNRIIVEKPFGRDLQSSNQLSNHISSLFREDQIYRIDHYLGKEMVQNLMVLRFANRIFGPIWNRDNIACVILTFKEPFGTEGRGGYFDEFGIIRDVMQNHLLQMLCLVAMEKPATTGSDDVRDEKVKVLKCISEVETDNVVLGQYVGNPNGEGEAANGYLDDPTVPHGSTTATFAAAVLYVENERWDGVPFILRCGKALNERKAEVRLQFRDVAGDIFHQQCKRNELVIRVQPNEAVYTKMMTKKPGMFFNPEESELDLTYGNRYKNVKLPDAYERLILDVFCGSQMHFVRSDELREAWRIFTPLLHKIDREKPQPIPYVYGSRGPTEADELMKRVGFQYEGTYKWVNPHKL
Procedure: Blood samples from mice were taken (40 μl whole blood) serially or from mice sacrificed at the end of the experiment. Tissues, such as tumors (e.g. from implantation, xenograft, or arising spontaneously), brain, heart, kidney, liver, lung and spleen were taken and flash frozen in liquid nitrogen or on dry ice and stored in −80° C. until time of assay. Four volumes of cold lysis buffer (20 mM HEPES, pH 7.5, 1 mM EDTA, 0.2 g/l Triton X-100® and 0.2 g/L sodium deoxycholate, supplemented with 1 mM DTT and 1 mM PMSF just before use) were added to the blood, which was dissolved by vortexing. For blood that was frozen before coagulation, a clear lysate was obtained. […]
Each reaction was monitored for the appearance of NADH (for transketolase, alpha-ketoglutarate dehydrogenase, pyruvate dehydrogenase) or NADPH (for glucose-6-phosphate dehydrogenase) at room temperature in a fluorescent plate reader with excitation at 340 nm and emission at 470 nm in kinetic mode. The velocity was determined by the slope of the initial linear range of increasing fluorescence, expressed in fluorescent units (FU)/min. The protein concentration in the lysate was determined using Bradford assays (BioRad) with BSA as a standard. […]
We measured enzyme activity in an expanded panel of tissues from mice treated with N3PT or OxyT for 11 days i.p., twice per day. […]

transketolase (TK) = molecular target: T2, transketolase (TK) (Mus musculus, UniProt P40142); test: Transketolase activity in blood, tumors and tissues of treated mice (fluorescence NADH assay); format: in vivo; conditions: 11 days i.p. twice per day
T2 construct: from tissue; host or cells: mouse blood, spleen, tumor, kidney, lung, liver (crude lysates)
T2 sequence (P40142 1-623): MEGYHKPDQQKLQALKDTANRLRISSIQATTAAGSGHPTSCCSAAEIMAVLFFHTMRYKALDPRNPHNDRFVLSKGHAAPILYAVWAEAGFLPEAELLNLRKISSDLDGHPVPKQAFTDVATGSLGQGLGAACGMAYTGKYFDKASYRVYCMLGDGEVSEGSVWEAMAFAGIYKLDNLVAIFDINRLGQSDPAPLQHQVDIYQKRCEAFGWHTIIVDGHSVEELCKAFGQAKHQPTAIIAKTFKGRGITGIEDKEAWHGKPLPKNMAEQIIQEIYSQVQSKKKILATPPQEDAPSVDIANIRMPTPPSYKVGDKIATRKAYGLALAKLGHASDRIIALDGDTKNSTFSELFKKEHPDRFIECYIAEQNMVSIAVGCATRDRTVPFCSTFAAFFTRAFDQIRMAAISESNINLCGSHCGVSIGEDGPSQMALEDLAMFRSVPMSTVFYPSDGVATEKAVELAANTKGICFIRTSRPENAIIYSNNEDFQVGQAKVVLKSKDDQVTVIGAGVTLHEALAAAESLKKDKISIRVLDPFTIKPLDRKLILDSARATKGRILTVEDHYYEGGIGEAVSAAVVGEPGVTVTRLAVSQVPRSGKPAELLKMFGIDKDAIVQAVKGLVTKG
Procedure: Blood samples from mice were taken (40 μl whole blood) serially or from mice sacrificed at the end of the experiment. Tissues, such as tumors (e.g. from implantation, xenograft, or arising spontaneously), brain, heart, kidney, liver, lung and spleen were taken and flash frozen in liquid nitrogen or on dry ice and stored in −80° C. until time of assay. Four volumes of cold lysis buffer (20 mM HEPES, pH 7.5, 1 mM EDTA, 0.2 g/l Triton X-100® and 0.2 g/L sodium deoxycholate, supplemented with 1 mM DTT and 1 mM PMSF just before use) were added to the blood, which was dissolved by vortexing. For blood that was frozen before coagulation, a clear lysate was obtained. If coagulation occurred, homogenization was used as described below for tissue. Tissues were suspended in lysis buffer in 10 ml round bottom tubes and homogenized with PowerGen 125® (Fisher Scientific) for four seconds at highest power while submerged in an ice-water bath. This step was repeated after a few seconds, as necessary. The lysate was used right away or else flash frozen and stored at −80° C. until assay time. Eighty microliters (80 μl) of lysate (containing 5 mg tissue/ml lysate for TK and kGDH, 0.5 mg/ml for G6PDH) were put directly in individual wells of a 96-well clear-bottomed assay plate. Twenty microliters (20 μl) of 5× reaction mix was added to initiate each enzymatic reaction.
Each reaction was monitored for the appearance of NADH (for transketolase, alpha-ketoglutarate dehydrogenase, pyruvate dehydrogenase) or NADPH (for glucose-6-phosphate dehydrogenase) at room temperature in a fluorescent plate reader with excitation at 340 nm and emission at 470 nm in kinetic mode. The velocity was determined by the slope of the initial linear range of increasing fluorescence, expressed in fluorescent units (FU)/min. The protein concentration in the lysate was determined using Bradford assays (BioRad) with BSA as a standard. The enzymatic velocity was normalized by the total protein concentration for inter-sample comparison. To obtain reliable results across samples, similar starting protein concentrations were prepared (within approximately 30%) so that the normalized velocity required only small adjustments. This was achieved by weighing the tissue and putting in lysis buffer so that the suspensions contained the same amount of tissue/ml lysis buffer for all samples.
For TK, 15 μl of 5× assay buffer containing final concentrations of 50 mM HEPES, 40 mM KCl, 2.5 mM MgCl2, 5 mM NaArsenate, 1 mM NAD, 2 unit/ml glyceraldehydes-3-phosphate dehydrogenase (GAPDH) was added to 80 μl of lysate. Reaction kinetics were monitored on a fluorescent plate reader to allow any possible background activity via GAPDH to burn out. Then 5 μl of substrate mix containing final concentrations of 0.5 mM ribose-5-phosphate and 0.5 mM xylulose-5-phosphate was added to initiate the reaction. The reaction kinetics were monitored using a fluorescent plate reader, and the slope of the initial linear range was recorded as the velocity of the reaction (FU/min). See FIG. 1 for the reaction scheme.
To investigate the amount of in vivo enzyme inhibition following treatment with an inhibitor, we administered a single dose of N3PT (100 mg/kg, intraperitoneally [i.p.]) and blood, spleen and brain samples were collected at various times from 0-120 hours after dosing. The enzymatic activities were determined as described in Example 1. TK activity was measured in blood and spleen. Because TK activity in the brain is below the detection limit of the assay, kGDH activity was measured in brain samples. Measurements were taken at various time intervals
We measured enzyme activity in an expanded panel of tissues from mice treated with N3PT or OxyT for 11 days i.p., twice per day. Samples were taken from tumors, blood, brain, heart, kidney, lung and spleen, and TK, kGDH and G6PDH activities were determined as described above.

Cc1ncc(C[n+]2csc(CCO)c2C)c(=O)[nH]1 [OxyT, oxythiamine]
G6PDH enzymatic activity following treatment [1]: no significant decrease
percent inhibition of TK activity in tumors (transketolase (TK); 100 mg/kg, compared to vehicle control): 40%
liver enzymatic (TK) activity (transketolase (TK); liver): hardly affected
